{"source": "patent US8962668B2", "about": "“Treatment of length dependent neuropathy” (Arcion Therapeutics, Inc., priority 2005, dated 2015)", "origin": "cited, not measured here", "tested_on": "patients with painful diabetic neuropathy", "data": [{"molecule": "Clc1cccc(Cl)c1N=C1NCCN1", "note": "[clonidine]", "values": [{"measurement": "difference between clonidine transdermal patches and placebo patches", "setting": "placebo-controlled cross-over pain trial (Zeigler et al.)", "value": "no statistically significant difference"}, {"measurement": "pain reduction relative to placebo", "setting": "responders rechallenged, highest transdermal patch dosage, p<0.015", "value": "modest although statistically significant"}, {"measurement": "clonidine responders", "setting": "transdermal patches, twelve of forty-one patients who completed initial course (Byas-Smith et al.)", "value": 29, "unit": "%"}]}]}
